# Measurements taken from US8507251B2, “Medium and method for culturing Mycobacterium avium subspecies paratuberculosis” (priority 2009, dated 2013).
# Where two headings read alike, the source gives them in different places.
# Assays:
# [1] = test system: eight mycobacterial strains
# [2] = test system: M. avium ATCC 25291; experiment: radiometric 14CO2 BACTEC 460 growth culture, M. avium 25291; type: cell-based, M. avium subspecies avium
# [3] = test system: MAP ATCC 19698; experiment: radiometric 14CO2 BACTEC 460 growth culture, MAP 19698; type: cell-based, Mycobacterium avium subspecies paratuberculosis
# [4] = test system: M. avium 101; experiment: radiometric 14CO2 BACTEC 460 growth culture, M. avium 101; type: cell-based, M. avium subspecies avium
# [5] = test system: avirulent M. tb strain ATCC 25177; type: cell-based, M. tuberculosis
# [6] = test system: MAP 303; experiment: radiometric 14CO2 BACTEC 460 growth culture, MAP 303; type: cell-based, Mycobacterium avium subspecies paratuberculosis
# [7] = test system: Bacillus Callmette Guerin (BCG) M. bovis Karlson & Lessel (ATCC 19015); type: cell-based
# [8] = test system: MAP strain Dominic (ATCC 43545); experiment: radiometric 14CO2 BACTEC 460 growth culture, MAP Dominic; type: cell-based, Mycobacterium avium subspecies paratuberculosis
# [9] = test system: MAP strain UCF-4; experiment: radiometric 14CO2 BACTEC 460 growth culture, MAP UCF-4; type: cell-based, Mycobacterium avium subspecies paratuberculosis
smiles,measurement,setting,value
"CN1CCCC1c1cccnc1 (racemic) [(±) nicotine, nicotine]",effect on growth (in words),[1],neither enhancement nor an inhibitory effect
"CN1CCCC1c1cccnc1 (single isomer, unassigned; (+)) [(+) nicotine, nicotine]",effect on growth (in words),[1],neither enhancement nor an inhibitory effect
"CN1CCCC1c1cccnc1 (single isomer, unassigned; (-)) [(−) nicotine, nicotine]",effect on growth (in words),[1],neither enhancement nor an inhibitory effect
"NNC(=O)c1ccncc1 [INH, Isoniazid, reference compound]",percent change from control cGI (% ΔcGI / % −ΔcGI),[2]; 1 μg/ml,176%
same,percent change from control cGI (% ΔcGI / % −ΔcGI),[2]; 4 μg/ml,89%
same,percent change from control cGI (% ΔcGI / % −ΔcGI),[2]; 16 μg/ml,189%
same,percent change from control cGI (% ΔcGI / % −ΔcGI),[2]; 64 μg/ml,−90%
same,percent change from control cGI (% ΔcGI / % −ΔcGI),[3]; 1 μg/ml,−20%
same,percent change from control cGI (% ΔcGI / % −ΔcGI),[3]; 4 μg/ml,−14%
same,percent change from control cGI (% ΔcGI / % −ΔcGI),[3]; 16 μg/ml,−17%
same,percent change from control cGI (% ΔcGI / % −ΔcGI),[3]; 64 μg/ml,−63%
same,effect on growth (in words),[3]; at the doses tested,no dose-dependent inhibition
same,percent change from control cGI (% ΔcGI / % −ΔcGI),[4]; 1 μg/ml,−48%
same,percent change from control cGI (% ΔcGI / % −ΔcGI),[4]; 4 μg/ml,−96%
same,percent change from control cGI (% ΔcGI / % −ΔcGI),[4]; 16 μg/ml,−95%
same,percent change from control cGI (% ΔcGI / % −ΔcGI),[4]; 64 μg/ml,−97%
same,percent decrease from control cGI (%−ΔcGI),"[4]; 64 μg/ml, value is a decrease",≥ 97%
same,percent change from control cGI (% ΔcGI / % −ΔcGI),[5]; 1 μg/ml,−97%
same,percent decrease from control cGI (%−ΔcGI),[5]; 1 μg/ml,97%
same,percent change from control cGI (% ΔcGI / % −ΔcGI),[5]; 4 μg/ml,−98%
same,percent change from control cGI (% ΔcGI / % −ΔcGI),[5]; 16 μg/ml,−98%
same,percent change from control cGI (% ΔcGI / % −ΔcGI),[5]; 64 μg/ml,−98%
same,percent change from control cGI (% ΔcGI / % −ΔcGI),[6]; 1 μg/ml,−18%
same,percent change from control cGI (% ΔcGI / % −ΔcGI),[6]; 4 μg/ml,−6%
same,percent change from control cGI (% ΔcGI / % −ΔcGI),[6]; 16 μg/ml,−12%
same,percent change from control cGI (% ΔcGI / % −ΔcGI),[6]; 64 μg/ml,−52%
same,effect on growth (in words),[6]; at the doses tested,no dose-dependent inhibition
same,percent decrease from control cGI (%−ΔcGI),[7],≥ 97%
same,percent change from control cGI (% ΔcGI / % −ΔcGI),"[8]; 1 μg/ml, first of the two values (two experiments)",18%
same,percent change from control cGI (% ΔcGI / % −ΔcGI),"[8]; 1 μg/ml, second of the two values (two experiments)",11%
same,percent change from control cGI (% ΔcGI / % −ΔcGI),"[8]; 4 μg/ml, first of the two values (two experiments)",9%
same,percent change from control cGI (% ΔcGI / % −ΔcGI),"[8]; 4 μg/ml, second of the two values (two experiments)",29%
same,percent change from control cGI (% ΔcGI / % −ΔcGI),"[8]; 16 μg/ml, first of the two values (two experiments)",−4%
same,percent change from control cGI (% ΔcGI / % −ΔcGI),"[8]; 16 μg/ml, second of the two values (two experiments)",9%
same,percent change from control cGI (% ΔcGI / % −ΔcGI),"[8]; 64 μg/ml, first of the two values (two experiments)",−65%
same,percent change from control cGI (% ΔcGI / % −ΔcGI),"[8]; 64 μg/ml, second of the two values (two experiments)",−52%
same,effect on growth (in words),[8]; at the doses tested,no dose-dependent inhibition
same,percent change from control cGI (% ΔcGI / % −ΔcGI),[9]; 1 μg/ml,−5%
same,percent change from control cGI (% ΔcGI / % −ΔcGI),[9]; 4 μg/ml,2%
same,percent change from control cGI (% ΔcGI / % −ΔcGI),[9]; 16 μg/ml,−4%
same,percent change from control cGI (% ΔcGI / % −ΔcGI),[9]; 64 μg/ml,−35%
same,effect on growth (in words),[9]; at the doses tested,no dose-dependent inhibition
